PubChem BioAssay AID330 (DTP/NCI, 2004)
“And” between values parts separate entries of the source, which are not always exact repeats. Equal entries are not always repeated. Toxic doses and inconclusive results are not listed.

System: P388 leukemia ip, CD2F1 mice, survival T/C
Experiment: NCI In Vivo Anticancer Drug Screen. Data for tumor model P388 Leukemia (intraperitoneal) in CD2F1 (CDF1) mice
Details: endpoint: median survival time, higher = longer survival
Method in brief: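 Mice carrying the transplanted tumor received test compound or vehicle. Survival was recorded in each group, and the value is the treated-group measurement divided by that of the vehicle-treated control group.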

[1] = dose: 25.0 mg/kg/injection, schedule: Q01DX009 (ip), vehicle: saline
[2] = dose: 100.0 mg/kg/injection, schedule: Q01DX009 (ip), vehicle: saline with Tween-80
[3] = dose: 200.0 mg/kg/injection, schedule: Q01DX009 (ip), vehicle: saline with Tween-80
[4] = dose: 100.0 mg/kg/injection, schedule: Q04DX003 (ip), vehicle: saline
[5] = dose: 12.5 mg/kg/injection, schedule: Q01DX009 (ip), vehicle: saline
[6] = dose: 50.0 mg/kg/injection, schedule: Q01DX005 (ip), vehicle: saline
[7] = dose: 240.0 mg/kg/injection, schedule: Q01DX005 (ip), vehicle: saline with Tween-80
[8] = dose: 50.0 mg/kg/injection, schedule: Q01DX005 (ip), vehicle: saline with Tween-80
[9] = dose: 100.0 mg/kg/injection, schedule: Q01DX005 (ip), vehicle: saline with Tween-80
[10] = dose: 200.0 mg/kg/injection, schedule: Q01DX005 (ip), vehicle: saline with Tween-80

`CC(=O)CS(C)(=O)=O` was tested, and the T/C [1] was 103 % of control, the T/C (dose: 50.0 mg/kg/injection, schedule: Q01DX009 (ip), vehicle: saline) was 102 % of control and the T/C (dose: 100.0 mg/kg/injection, schedule: Q01DX009 (ip), vehicle: saline) was 101 % of control. For the same molecule, the T/C (dose: 200.0 mg/kg/injection, schedule: Q01DX009 (ip), vehicle: saline) was 98 % of control.
`COC(C)C(Cl)C(=O)NN=C(c1ccccc1)c1ccccc1` (stereo not drawn) was tested, and the T/C (dose: 50.0 mg/kg/injection, schedule: Q01DX009 (ip), vehicle: saline with Tween-80) was 108 % of control, the T/C [2] was 105 % of control and the T/C [3] was 99 % of control.
For `COc1cc(OC)cc(C2OC3=C(Nc4ccccc4N3)C2=O)c1` (stereo not drawn), the T/C (dose: 60.0 mg/kg/injection, schedule: Q01DX005 (ip), vehicle: Klucel (hydroxypropylcellulose) (HPC)) was 93 % of control and the T/C (dose: 120.0 mg/kg/injection, schedule: Q01DX005 (ip), vehicle: Klucel (hydroxypropylcellulose) (HPC)) was 89 % of control.
`COc1cc2c(cc1O)-c1c(cnn1-c1ccc([N+](=O)[O-])cc1[N+](=O)[O-])CCC2` was tested, and the T/C [4] was 100 % of control, the T/C (dose: 200.0 mg/kg/injection, schedule: Q04DX003 (ip), vehicle: saline) was 99 % of control and the T/C (dose: 400.0 mg/kg/injection, schedule: Q04DX003 (ip), vehicle: saline) was 96 % of control.
With `CC/C(C)=N/NC(=S)NC` the T/C (dose: 6.25 mg/kg/injection, schedule: Q01DX009 (ip), vehicle: saline) was 98 % of control, the T/C [5] was 98 % of control and the T/C [1] was 101 % of control.
For `NC(=O)c1nc2c(Nc3ccccc3Br)nc(N)nc2nc1N`, the T/C (dose: 100.0 mg/kg/injection, schedule: Q01DX001 (ip), vehicle: saline) was 104 % of control, the T/C (dose: 200.0 mg/kg/injection, schedule: Q01DX001 (ip), vehicle: saline) was 101 % of control and the T/C (dose: 400.0 mg/kg/injection, schedule: Q01DX001 (ip), vehicle: saline) was 97 % of control.
`Cc1cc(O)c(N=Nc2ccc(C(=O)O)cc2)cc1C` was tested, and the T/C [2] was 100 % of control, the T/C (dose: 100.0 mg/kg/injection, schedule: Q04DX003 (ip), vehicle: saline with Tween-80) was 90 % of control and the T/C [3] was 95 % of control. The T/C (dose: 400.0 mg/kg/injection, schedule: Q01DX009 (ip), vehicle: saline with Tween-80) was 95 % of control and the T/C (dose: 400.0 mg/kg/injection, schedule: Q04DX003 (ip), vehicle: saline with Tween-80) was 90 % of control.
`C#CC(C)OCC(C)OC(C)=O` (stereo not drawn) was tested, and the T/C (dose: 150.0 mg/kg/injection, schedule: Q01DX009 (ip), vehicle: saline with Tween-80) was 88 % of control and the T/C (dose: 225.0 mg/kg/injection, schedule: Q01DX009 (ip), vehicle: saline with Tween-80) was 88 % of control.
In the case of `Clc1ccc(N=C/C=C\C=C/Nc2ccc(Cl)cc2)cc1`, the T/C (dose: 5.0 mg/kg/injection, schedule: Q01DX009 (ip), vehicle: saline with Tween-80) is reported as 108 % of control, the T/C (dose: 10.0 mg/kg/injection, schedule: Q01DX005 (ip), vehicle: saline with Tween-80) is reported as 108 % of control and the T/C (dose: 10.0 mg/kg/injection, schedule: Q01DX009 (ip), vehicle: saline with Tween-80) is reported as 97 % of control. The T/C (dose: 20.0 mg/kg/injection, schedule: Q01DX005 (ip), vehicle: saline with Tween-80) was 95 % of control, the T/C (dose: 20.0 mg/kg/injection, schedule: Q01DX009 (ip), vehicle: saline with Tween-80) was 95 % of control and the T/C (dose: 40.0 mg/kg/injection, schedule: Q01DX005 (ip), vehicle: saline with Tween-80) was 100 % of control. The T/C (dose: 80.0 mg/kg/injection, schedule: Q01DX005 (ip), vehicle: saline with Tween-80) was 98 % of control and the T/C (dose: 160.0 mg/kg/injection, schedule: Q01DX005 (ip), vehicle: saline with Tween-80) was 93 % of control.
For `Cc1ccc2[nH]c(C)c(C(=O)c3cccnc3)c2c1`, the T/C (dose: 100.0 mg/kg/injection, schedule: Q04DX003 (ip), vehicle: Klucel (hydroxypropylcellulose) (HPC)) was 92 % of control, the T/C (dose: 200.0 mg/kg/injection, schedule: Q04DX003 (ip), vehicle: Klucel (hydroxypropylcellulose) (HPC)) was 91 % of control and the T/C (dose: 400.0 mg/kg/injection, schedule: Q04DX003 (ip), vehicle: Klucel (hydroxypropylcellulose) (HPC)) was 110 % of control.
With `O=C1c2ccccc2C(=O)c2c1ccc1c2CCC1` the T/C (dose: 7.5 mg/kg/injection, schedule: Q01DX009 (ip), vehicle: saline with Tween-80) was 97 % of control, the T/C (dose: 15.0 mg/kg/injection, schedule: Q01DX009 (ip), vehicle: saline with Tween-80) was 95 % of control and the T/C (dose: 30.0 mg/kg/injection, schedule: Q01DX009 (ip), vehicle: saline with Tween-80) was 105 % of control.
With `C[N+]1(C[Si](C)(C)c2ccccc2)CCOCC1` the T/C (dose: 12.5 mg/kg/injection, schedule: Q01DX005 (ip), vehicle: saline) was 105 % of control, the T/C (dose: 25.0 mg/kg/injection, schedule: Q01DX005 (ip), vehicle: saline) was 103 % of control and the T/C [6] was 102 % of control and 104 % of control.
With `Cc1cc(NN=O)nc(C)n1` the T/C (dose: 3.12 mg/kg/injection, schedule: Q01DX009 (ip), vehicle: water) was 98 % of control, the T/C (dose: 6.25 mg/kg/injection, schedule: Q01DX009 (ip), vehicle: water) was 98 % of control and the T/C (dose: 12.5 mg/kg/injection, schedule: Q01DX009 (ip), vehicle: water) was 98 % of control. The T/C (dose: 25.0 mg/kg/injection, schedule: Q01DX009 (ip), vehicle: water) was 100 % of control and 101 % of control, the T/C (dose: 50.0 mg/kg/injection, schedule: Q01DX009 (ip), vehicle: water) was 104 % of control and 106 % of control and the T/C (dose: 200.0 mg/kg/injection, schedule: Q01DX009 (ip), vehicle: water) was 166 % of control.
In the case of `NS(=O)(=O)c1ccc(Nc2c3ccccc3nc3c([N+](=O)[O-])cccc23)cc1`, the T/C (dose: 15.0 mg/kg/injection, schedule: Q01DX005 (ip), vehicle: saline with Tween-80) is reported as 97 % of control, the T/C (dose: 30.0 mg/kg/injection, schedule: Q01DX005 (ip), vehicle: saline with Tween-80) is reported as 90 % of control and the T/C [7] is reported as 88 % of control.
With `CCOC(=O)c1cnc2cc3c(cc2c1Nc1ccc2c(c1)OCO2)OCO3` the T/C (dose: 60.0 mg/kg/injection, schedule: Q01DX005 (ip), vehicle: Klucel + Tween-80) was 108 % of control and the T/C (dose: 120.0 mg/kg/injection, schedule: Q01DX005 (ip), vehicle: Klucel + Tween-80) was 109 % of control.
In the case of `Cc1ccc2c(Nc3ccc(NS(C)(=O)=O)cc3C)c3ccccc3nc2c1`, the T/C [5] is reported as 150 % of control and 161 % of control, the T/C (dose: 12.5 mg/kg/injection, schedule: Q04DX003 (ip), vehicle: saline) is reported as 98 % of control and the T/C [1] is reported as 156 % of control and 157 % of control. The T/C (dose: 25.0 mg/kg/injection, schedule: Q04DX003 (ip), vehicle: saline) was 96 % of control, the T/C (dose: 50.0 mg/kg/injection, schedule: Q04DX003 (ip), vehicle: saline) was 97 % of control and the T/C [4] was 95 % of control.
With `COC(=O)N1C=CC2ON=C(OC)C2C1c1ccccc1` (stereo not drawn) the T/C [8] was 98 % of control, the T/C [9] was 98 % of control and the T/C [10] was 101 % of control.
In the case of `CC1=Nc2ccccc2NC(=O)C1`, the T/C (dose: 12.5 mg/kg/injection, schedule: Q01DX009 (ip), vehicle: Klucel (hydroxypropylcellulose) (HPC)) is reported as 99 % of control, the T/C (dose: 25.0 mg/kg/injection, schedule: Q01DX009 (ip), vehicle: Klucel (hydroxypropylcellulose) (HPC)) is reported as 108 % of control and the T/C (dose: 50.0 mg/kg/injection, schedule: Q01DX009 (ip), vehicle: Klucel (hydroxypropylcellulose) (HPC)) is reported as 100 % of control. The T/C (dose: 100.0 mg/kg/injection, schedule: Q01DX009 (ip), vehicle: Klucel (hydroxypropylcellulose) (HPC)) was 108 % of control.
`O=C(CC1(O)C(=O)Nc2ccccc21)c1ccc([N+](=O)[O-])cc1` (stereo not drawn) was tested, and the T/C (dose: 60.0 mg/kg/injection, schedule: Q01DX005 (ip), vehicle: saline with Tween-80) was 102 % of control, the T/C (dose: 120.0 mg/kg/injection, schedule: Q01DX005 (ip), vehicle: saline with Tween-80) was 95 % of control and the T/C [7] was 100 % of control.
`Cc1cc(C(N)=O)c[n+](C)c1` was tested, and the T/C [6] was 100 % of control, the T/C (dose: 100.0 mg/kg/injection, schedule: Q01DX005 (ip), vehicle: saline) was 105 % of control and the T/C (dose: 200.0 mg/kg/injection, schedule: Q01DX005 (ip), vehicle: saline) was 107 % of control.
`O=C(Oc1c(OC(=O)c2ccccc2)c(OC(=O)c2ccccc2)c(OC(=O)c2ccccc2)c(OC(=O)c2ccccc2)c1OC(=O)c1ccccc1)c1ccccc1` was tested, and the T/C (dose: 100.0 mg/kg/injection, schedule: Q04DX002 (ip), vehicle: saline with Tween-80) was 107 % of control, the T/C (dose: 200.0 mg/kg/injection, schedule: Q04DX002 (ip), vehicle: saline with Tween-80) was 94 % of control and the T/C (dose: 400.0 mg/kg/injection, schedule: Q04DX002 (ip), vehicle: saline with Tween-80) was 89 % of control.
With `N#CC(c1c(Cl)cccc1N1CCCCC1)N1CCCCC1` (stereo not drawn) the T/C [8] was 108 % of control, the T/C [9] was 104 % of control and the T/C [10] was 100 % of control.
